Results as given in patent US20090238808A1, “Process for the identification of novel enzyme interacting compounds” (priority 2005, published 2009).
Each block holds one compound with its values, some of them ahead of it.

Assays:
TBK1 = target: T1, TBK1 (Mus musculus, UniProt Q9WUN2); assay: Kinobeads elution with test compound, mouse brain lysate, MS; type: binding; details: kinase released from kinobeads by specific elution
T1 construct: from tissue; host or cells: mouse brain
Outline: (§1)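 Competitive elution: mouse brain lysate bound to kinobeads, gentle wash, test compound 1.0 mM in elution buffer, 30 min, 4° C; solvent control 2% DMSO/DMF. Eluates → DTT reduction, iodoacetamide alkylation, SDS gel → MS identification.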

PKCa = target: T2, PKCa (Mus musculus, UniProt P20444); assay: as above; type: binding; details: kinase released from kinobeads by specific elution
T2 construct: from tissue; host or cells: mouse brain
Outline: as §1

PAK5 = target: T3, PAK5 (Mus musculus, UniProt Q8C015); assay: as above; type: binding; details: kinase released from kinobeads by specific elution
T3 construct: from tissue; host or cells: mouse brain
T3 sequence (Q8C015 whole entry): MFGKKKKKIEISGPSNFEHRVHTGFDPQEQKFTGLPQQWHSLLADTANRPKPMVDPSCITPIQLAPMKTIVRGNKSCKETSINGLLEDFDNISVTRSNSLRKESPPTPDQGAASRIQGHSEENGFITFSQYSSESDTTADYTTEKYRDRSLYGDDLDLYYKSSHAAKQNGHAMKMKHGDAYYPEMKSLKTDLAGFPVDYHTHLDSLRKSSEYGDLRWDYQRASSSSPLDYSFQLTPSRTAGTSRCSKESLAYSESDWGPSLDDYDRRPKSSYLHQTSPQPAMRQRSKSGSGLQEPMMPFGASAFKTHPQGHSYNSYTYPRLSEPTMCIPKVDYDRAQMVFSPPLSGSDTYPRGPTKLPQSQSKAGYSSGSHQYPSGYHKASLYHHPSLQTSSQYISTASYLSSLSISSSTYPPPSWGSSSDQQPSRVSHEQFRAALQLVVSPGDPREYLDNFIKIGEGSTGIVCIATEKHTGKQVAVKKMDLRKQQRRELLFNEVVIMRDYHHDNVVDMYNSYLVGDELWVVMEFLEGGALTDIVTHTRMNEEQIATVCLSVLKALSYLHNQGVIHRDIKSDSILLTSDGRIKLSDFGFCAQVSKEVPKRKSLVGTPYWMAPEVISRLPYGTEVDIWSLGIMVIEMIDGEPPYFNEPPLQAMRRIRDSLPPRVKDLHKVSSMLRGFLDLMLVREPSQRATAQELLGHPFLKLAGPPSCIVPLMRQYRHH
Outline: as §1

GSK3alpha = target: T4, GSK3alpha (Homo sapiens, UniProt P49840); assay: In-lysate competition binding with kinobeads, Jurkat lysate, Western blot; details: Jurkat lysate preincubated with 0.025-6.0 μM compound
T4 construct: Aliqots of Jurkat lysate (10 mg protein) were incubated with different Bis VIII concentrations; endogenous in cells; host or cells: Jurkat clone E6-1 lysate
Experimental: (§2) This example illustrates competition binding in cell lysates (see particularly the third aspect of the invention). A test compound, Bisindolylmaleimide VIII (Bis VIII, a well known kinase inhibitor; Davies et al., 2000. Specificity and mechanism of action of some commonly used protein kinase inhibitors. Biochemical Journal 351 (Pt 1): 95-105) was added to a cell lysate thereby allowing the test compound to bind to the target proteins in the lysate. Then the lysate was contacted with the kinobeads affinity matrix to capture remaining free target proteins. The proteins bound to the kinobeads matrix were then eluted with detergent-containing buffer, separated on a SDS-polyacryamide gel and analyzed by immunodetection (Western blots) or mass spectrometry detection.
(§3) For Western blot analysis proteins bound to the affinity matrix were eluted from the affinity matrix and subsequently separated by SDS-Polyacrylamide gel elecrophoresis and transferred to a blotting membrane. Individual kinases were detected with specific antibodies against GSK3alpha, GSK3beta and ITK (FIG. 4A). […] For GSK3beta the signal was quantified and plotted against the Bis VIII concentration added to the cell lysate (FIG. 4B).
(§4) Aliqots of Jurkat lysate (10 mg protein) were incubated with different Bis VIII concentrations for one hour at 4° C. (0.025 μM, 0.074 μM, 0.22 μM, 0.67 μM, 2.0 μM and 6.0 μM final concentration of Bis VIII). To this end Bis VIII solutions were prepared in 100% DMSO as solvent that corresponded to 200 fold desired final Bis VIII concentration (Bis VIII from Alexis Biochemicals cat. number ALX 270-056). Five μl of these solutions were added to 1 ml of lysate resulting in the indicated final concentrations. For a control experiment 5 μl of DMSO without Bis VIII were used.
(§5) To each preincubated lysate sample 40 μl of kinobeads (see example 1) were added and incubated for one hour at 4° C. During the incubation the tubes were rotated on an end-over-end shaker (Roto Shake Genie, Scientific Industries Inc.). […]

GSK3beta = target: T5, GSK3beta (Homo sapiens, UniProt P49841); assay: as above; details: Jurkat lysate preincubated with 0.025-6.0 μM compound
T5 construct: Aliqots of Jurkat lysate (10 mg protein) were incubated with different Bis VIII concentrations; endogenous in cells; host or cells: Jurkat clone E6-1 lysate
T5 sequence (P49841 whole entry): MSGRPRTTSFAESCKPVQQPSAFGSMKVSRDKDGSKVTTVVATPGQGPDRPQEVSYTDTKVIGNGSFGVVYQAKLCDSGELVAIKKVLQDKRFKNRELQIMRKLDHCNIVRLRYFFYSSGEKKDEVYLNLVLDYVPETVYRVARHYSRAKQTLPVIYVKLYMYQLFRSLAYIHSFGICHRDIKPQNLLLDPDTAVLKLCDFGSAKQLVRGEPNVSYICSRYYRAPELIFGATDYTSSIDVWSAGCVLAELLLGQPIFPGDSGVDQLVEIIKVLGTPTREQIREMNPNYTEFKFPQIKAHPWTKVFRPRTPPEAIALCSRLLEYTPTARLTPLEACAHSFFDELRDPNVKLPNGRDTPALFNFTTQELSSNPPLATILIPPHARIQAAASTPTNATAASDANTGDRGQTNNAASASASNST
Experimental: as §2, §3, §4, §5

ITK = target: T6, ITK (Homo sapiens, UniProt Q08881); assay: as above; details: Jurkat lysate preincubated with 0.025-6.0 μM compound
T6 construct: Aliqots of Jurkat lysate (10 mg protein) were incubated with different Bis VIII concentrations; endogenous in cells; host or cells: Jurkat clone E6-1 lysate
T6 sequence (Q08881 whole entry): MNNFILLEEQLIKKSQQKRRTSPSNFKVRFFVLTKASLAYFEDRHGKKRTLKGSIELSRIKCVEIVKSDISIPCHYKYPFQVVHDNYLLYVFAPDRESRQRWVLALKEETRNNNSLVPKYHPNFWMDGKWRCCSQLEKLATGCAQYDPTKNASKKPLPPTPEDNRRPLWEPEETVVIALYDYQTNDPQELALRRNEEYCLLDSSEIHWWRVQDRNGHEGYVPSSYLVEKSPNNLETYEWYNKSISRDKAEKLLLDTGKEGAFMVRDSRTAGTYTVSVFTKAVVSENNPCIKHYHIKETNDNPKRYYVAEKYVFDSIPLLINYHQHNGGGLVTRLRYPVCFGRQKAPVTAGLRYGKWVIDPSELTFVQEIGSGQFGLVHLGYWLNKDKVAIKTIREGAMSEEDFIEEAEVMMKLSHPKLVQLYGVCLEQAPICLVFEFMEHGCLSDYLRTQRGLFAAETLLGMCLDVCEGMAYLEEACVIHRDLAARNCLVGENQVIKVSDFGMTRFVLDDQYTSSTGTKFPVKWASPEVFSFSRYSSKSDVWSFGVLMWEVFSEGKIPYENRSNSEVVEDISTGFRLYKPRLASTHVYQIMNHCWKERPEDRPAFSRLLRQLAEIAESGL
Experimental: as §2, §3, §4, §5

NEK9 = target: T7, NEK9 (Mus musculus, UniProt Q8K1R7); assay: Kinobeads elution with test compound, mouse brain lysate, MS; type: binding; details: kinase released from kinobeads by specific elution
T7 construct: from tissue; host or cells: mouse brain
T7 sequence (Q8K1R7 whole entry): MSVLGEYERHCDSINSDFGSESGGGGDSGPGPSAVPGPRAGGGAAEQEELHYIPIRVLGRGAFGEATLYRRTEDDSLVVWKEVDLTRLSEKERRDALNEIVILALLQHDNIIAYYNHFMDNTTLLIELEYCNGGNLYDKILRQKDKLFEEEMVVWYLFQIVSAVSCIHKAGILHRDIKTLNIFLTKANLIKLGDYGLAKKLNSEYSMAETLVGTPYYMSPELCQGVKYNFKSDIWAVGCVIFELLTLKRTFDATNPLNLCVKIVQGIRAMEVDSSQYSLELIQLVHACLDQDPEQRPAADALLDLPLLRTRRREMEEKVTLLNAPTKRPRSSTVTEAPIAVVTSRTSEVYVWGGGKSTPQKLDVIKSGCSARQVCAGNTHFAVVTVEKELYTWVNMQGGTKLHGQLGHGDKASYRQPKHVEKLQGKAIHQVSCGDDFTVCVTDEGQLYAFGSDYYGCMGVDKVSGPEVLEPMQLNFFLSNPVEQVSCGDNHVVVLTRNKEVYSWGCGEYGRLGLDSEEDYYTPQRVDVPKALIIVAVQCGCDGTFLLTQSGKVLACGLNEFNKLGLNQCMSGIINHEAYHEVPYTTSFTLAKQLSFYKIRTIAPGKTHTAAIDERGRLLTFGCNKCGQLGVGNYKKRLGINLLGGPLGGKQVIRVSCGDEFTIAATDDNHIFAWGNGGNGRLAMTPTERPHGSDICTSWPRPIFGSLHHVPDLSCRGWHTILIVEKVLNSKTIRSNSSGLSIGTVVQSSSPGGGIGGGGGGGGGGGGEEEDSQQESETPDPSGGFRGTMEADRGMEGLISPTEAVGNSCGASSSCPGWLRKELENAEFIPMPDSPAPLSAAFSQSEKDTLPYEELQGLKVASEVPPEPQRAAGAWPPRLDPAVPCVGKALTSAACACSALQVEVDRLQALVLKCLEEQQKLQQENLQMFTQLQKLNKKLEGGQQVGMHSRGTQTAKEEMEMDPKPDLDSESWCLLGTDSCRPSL
Outline: as §1

LYN = target: T8, LYN (Mus musculus, UniProt P25911); assay: as above; type: binding; details: kinase released from kinobeads by specific elution
T8 construct: from tissue; host or cells: mouse brain
T8 sequence (P25911 whole entry): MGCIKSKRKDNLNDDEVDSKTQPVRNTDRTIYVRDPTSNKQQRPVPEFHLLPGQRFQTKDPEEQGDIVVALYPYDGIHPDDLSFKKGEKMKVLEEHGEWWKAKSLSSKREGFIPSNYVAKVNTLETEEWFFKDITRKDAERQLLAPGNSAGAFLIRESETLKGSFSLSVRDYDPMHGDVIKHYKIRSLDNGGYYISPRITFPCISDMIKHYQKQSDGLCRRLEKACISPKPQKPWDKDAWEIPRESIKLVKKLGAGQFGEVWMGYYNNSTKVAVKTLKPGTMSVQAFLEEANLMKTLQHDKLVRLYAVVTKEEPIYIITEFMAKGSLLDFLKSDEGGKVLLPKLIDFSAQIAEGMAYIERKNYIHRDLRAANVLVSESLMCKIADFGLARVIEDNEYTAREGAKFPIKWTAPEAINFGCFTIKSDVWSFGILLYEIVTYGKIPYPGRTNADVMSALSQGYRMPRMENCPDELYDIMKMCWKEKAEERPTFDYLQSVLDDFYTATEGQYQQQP
Outline: as §1

T1 sequence (Q9WUN2 whole entry): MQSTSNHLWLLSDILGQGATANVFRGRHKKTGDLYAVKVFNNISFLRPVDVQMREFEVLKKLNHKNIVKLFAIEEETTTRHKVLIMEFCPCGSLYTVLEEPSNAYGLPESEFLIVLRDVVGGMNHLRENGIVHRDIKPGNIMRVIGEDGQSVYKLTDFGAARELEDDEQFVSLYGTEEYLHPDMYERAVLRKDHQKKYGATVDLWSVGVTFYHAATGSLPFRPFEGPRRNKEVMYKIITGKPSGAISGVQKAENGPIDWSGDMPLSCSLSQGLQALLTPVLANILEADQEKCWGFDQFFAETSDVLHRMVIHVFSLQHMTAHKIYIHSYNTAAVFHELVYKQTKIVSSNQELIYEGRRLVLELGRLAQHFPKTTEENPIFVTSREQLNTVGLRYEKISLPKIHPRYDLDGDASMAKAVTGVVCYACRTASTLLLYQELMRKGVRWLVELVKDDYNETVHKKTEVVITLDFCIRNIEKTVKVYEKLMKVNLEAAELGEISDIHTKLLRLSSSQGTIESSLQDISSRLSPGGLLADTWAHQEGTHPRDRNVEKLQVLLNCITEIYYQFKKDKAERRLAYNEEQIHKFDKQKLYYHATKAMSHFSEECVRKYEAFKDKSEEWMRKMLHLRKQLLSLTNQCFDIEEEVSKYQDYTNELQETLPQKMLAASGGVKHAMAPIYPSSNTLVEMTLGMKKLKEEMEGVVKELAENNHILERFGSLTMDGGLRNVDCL

Compound: CNC1CC2OC(C)(C1OC)n1c3ccccc3c3c4c(c5c6ccccc6n2c5c31)C(=O)NC4 (stereo not shown) [CZC9280]
mass spectrometry score, TBK1 (TBK1): 48 | number of identified peptides, TBK1 (TBK1): 1 | mass spectrometry score, PKCa (PKCa): 64 | number of identified peptides, PKCa (PKCa): 1 | mass spectrometry score, PAK5 (PAK5): 64 | number of identified peptides, PAK5 (PAK5): 1

binding of GSK3alpha to kinobeads, Western blot (GSK3alpha): prevented binding | binding of GSK3beta to kinobeads, Western blot (GSK3beta): prevented binding | binding of ITK to kinobeads, Western blot (ITK): not binding of ITK
Compound: Cn1cc(C2=C(c3cn(CCCN)c4ccccc34)C(=O)NC2=O)c2ccccc21 [Bis VIII, Bisindolylmaleimide VIII]

mass spectrometry score, NEK9 (NEK9): 61 | number of identified peptides, NEK9 (NEK9): 2
Compound: NCc1ccc(Nc2ncc(F)c(Nc3ccccc3)n2)cc1 [CZC00008004]

mass spectrometry score, LYN (LYN): 134 | number of identified peptides, LYN (LYN): 6
Compound: CCCCCCCCCCCCOS(=O)(=O)[O-].[Na+] [SDS]
